Measured values: US9434684B2, “Oxime-substituted amide compound and pest control agent” (Nissan Chemical Industries, Ltd., priority 2012, dated 2016)

Legend:
Puccinia recondita = test: Preventive effect against wheat brown leaf rust; type: in vivo; conditions: 216 h, test solution A 500 ppm, 1 + 8 days
Procedure: (§1) Compounds of the present invention were dissolved in a solvent for emulsion (a mixture of Sorpol (registered trademark) 3005XL (manufactured by Toho Chemical Industry Co., Ltd.): N-methylpyrrolidone:Solvesso (registered trademark) 200 (manufactured by ExxonMobil Chemical) in a ratio of 1:5:2) to prepare 20% emulsifiable concentrates. Then, distilled water was added to dilute the emulsifiable concentrates to the predetermined concentration (500 ppm), and the obtained solutions were used in the following Test Examples 1 to 7. To wheat (cultivar: Norin-61-go) in 1.3-leaf stage planted in 90 cm^3 plastic pots, 5 ml per pot of test solutions A of the compounds of the present invention were applied. On the next day, a suspension of spore of Puccinia recondita was spray-inoculated to the wheat, and the pots were placed in an inoculation chamber at 20° C. under a humidity of 100% for 1 day. Then, the pots were placed in an air-conditioned greenhouse (20° C.) for 8 days. The proportion of the formed lesion in the inoculated leaves was measured to calculate the control value in accordance with the same formula as in Test Example 1. Here, the test was carried out in duplicate.

Botrytis cinerea = test: Preventive effect against cucumber gray mold (mycelium inoculation); type: in vivo; conditions: 48 h, test solution A 500 ppm, 2 days
Procedure: Compounds of the present invention were dissolved in a solvent for emulsion (a mixture of Sorpol (registered trademark) 3005XL (manufactured by Toho Chemical Industry Co., Ltd.): N-methylpyrrolidone:Solvesso (registered trademark) 200 (manufactured by ExxonMobil Chemical) in a ratio of 1:5:2) to prepare 20% emulsifiable concentrates. Then, distilled water was added to dilute the emulsifiable concentrates to the predetermined concentration (500 ppm), and the obtained solutions were used in the following Test Examples 1 to 7. Cucumber (cultivar: Sagami Hanjiro) was planted in 90 cm^3 plastic pots, and in the seed leaf stage, 5 ml per pot of test solutions A of the compounds of the present invention were applied. On the next day, the pots were put in a plastic container, and agar blocks (diameter: 5 mm) containing Botrytis cinerea preliminarily cultivated in a PDA medium were inoculated to the seed leaves of the cucumber treated with the solutions. After the inoculation, the plastic container was covered with a plastic sheet and humidified, and placed at 20° C. for 2 days, whereupon the proportion of the formed lesion in the inoculated leaves was measured to calculate the control value in accordance with the same formula as in Test Example 1. Here, the test was carried out in duplicate.

Meloidogyne incognita = test: Preventive effect on Meloidogyne incognita (garden balsam seedlings, root knot); type: in vivo; conditions: 504 h, test solution B 100 ppm, 1 ml per seedling, 3 weeks, read-out: efficacy (damage degree, root knot, relative to non-treated plot)
Procedure: Compounds of the present invention were dissolved in dimethylsulfoxide to prepare 1% solutions. Then, distilled water was added to dilute the solutions to the predetermined concentration (100 ppm), and the obtained solutions were used in the following Test Examples 8 to 12. 1 ml per seedling of test solutions B of the compounds of the present invention were treated to the bases of garden balsam seedlings (about 2 weeks after budding) planted in a cell tray of which each cell was filled with 10 g of soil. 1 Hour after the application, 1 ml per cell of water containing Meloidogyne incognita 2 L larvae (100 2 L larvae/1 ml) was applied to the bases. The tray was placed in a greenhouse for 3 weeks, and the root knot level formed on the root was determined in accordance with the following damage index and the damage degree to calculate the efficacy (%) relative to the non-treated plot in accordance with the following formula. <Damage Index> 0: No knot observed. 1: Knot observed on a part of the root system. 2: Knot observed on the entire root system. 3: Large knot observed. 4: Large knot observed on the entire root system. [Damage degree]=[Σ(damage index×number of seedlings at each index)/(4×number of seedlings investigated)]×100 Efficacy(%)=[1−(damage degree in treated plot/damage degree in non-treated plot)]×100

[1] = tested on: Phaeosphaeria nodorum (synonym: Septoria nodorum); test: Preventive effect against wheat glume blotch; type: in vivo; conditions: Parastagonospora nodorum, 192 h, test solution A 500 ppm, 2 + 6 days
Procedure: as §1, with “Haruyutaka)” for “Norin-61-go)”, “conidium” for “spore”, “Phaeosphaeria nodorum synonym: Septoria nodorum)” for “Puccinia recondita”, “2 days.” for “1 day.”, “6” for “8”

| SMILES | melting point | pest or weed control at 100 µg/mL (Meloidogyne incognita) | other results |
| --- | --- | --- | --- |
| CC(C)O/N=C(\CNC(=O)c1ccccc1C(F)(F)F)c1ncc(Cl)cc1Cl [Compound No. 2-239, (E)-N-[2-(3,5-dichloropyridin-2-yl)-2-(isopropoxyimino)ethyl]-2-(trifluoromethyl)benzamide] | 54 to 57 °C | – | – |
| CC(C)ON=C(CNC(=O)c1ccccc1C(F)(F)F)c1ncc(C#CC(C)(C)C)cc1Cl [Compound No. 2-248, N-[2-[3-chloro-5-(3,3-dimethyl-1-butynyl)pyridin-2-yl]-2-(isopropoxyimino)ethyl]-2-(trifluoromethyl)benzamide] | – | – | pest or weed control at 500 µg/mL (Puccinia recondita): ≥ 70% |
| CON=C(CNC(=O)c1ccccc1C(F)(F)F)c1ncc(OCC(F)(F)F)cc1Cl [Compound No. 2-223, N-[2-[3-chloro-5-(2,2,2-trifluoroethoxy)pyridin-2-yl]-2-(methoxyimino)ethyl]-2-(trifluoromethyl)benzamide] | – | – | pest or weed control at 500 µg/mL (Botrytis cinerea): ≥ 70% |
| CC(ON=C(CNC(=O)c1ccccc1C(F)(F)F)c1ncc(Cl)cc1Cl)c1ccc(F)cc1 (stereo not drawn) [Compound No. 2-173, N-[2-(3,5-dichloropyridin-2-yl)-2-[1-(4-fluorophenyl)ethoxyimino]ethyl]-2-(trifluoromethyl)benzamide] | – | ≥ 50% | – |
| CC(O/N=C(/CNC(=O)c1ccccc1C(F)(F)F)c1ncc(Cl)cc1Cl)c1ccc(F)cc1 (stereo not drawn) [Compound No. 2-174, (Z)—N-[2-(3,5-dichloropyridin-2-yl)-2-[1-(4-fluorophenyl)ethoxyimino]ethyl]-2-(trifluoromethyl)benzamide] | – | ≥ 50% | pest or weed control at 500 µg/mL (Puccinia recondita): ≥ 70% |
| CC(C)ON=C(CNC(=O)c1ccccc1C(F)(F)F)c1ncc(Br)cc1Cl [Compound No. 2-181, N-[2-(5-bromo-3-chloropyridin-2-yl)-2-(isopropoxyimino)ethyl]-2-(trifluoromethyl)benzamide] | – | ≥ 50% | pest or weed control at 500 µg/mL [1]: ≥ 70% |
| CC(C)O/N=C(\CNC(=O)c1ccccc1C(F)(F)F)c1ncc(C(F)(F)F)cc1Cl [Compound No. 2-019, (E)-N-[2-[3-chloro-5-(trifluoromethyl)pyridin-2-yl]-2-(isopropoxyimino)ethyl]-2-(trifluoromethyl)benzamide] | 81 to 83 °C | – | – |
| CON=C(CN(C(=O)c1ccccc1C(F)(F)F)C1CC1)c1ncc(Cl)cc1Cl [4-007] | 75 to 77 °C | – | – |
| CC(C)(C)ON=C(CNC(=O)c1ccccc1C(F)(F)F)c1ncc(Cl)cc1Cl [2-139, N-[2-(3,5-dichloropyridin-2-yl)-2-(tert-butoxyimino)ethyl]-2-(trifluoromethyl)benzamide] | – | – | pest or weed control at 500 µg/mL [1]: ≥ 70% |
| CC(C)O/N=C(/CNC(=O)c1ccccc1C(F)(F)F)c1ncc(Cl)cc1Cl [Compound No. 2-128, (Z)—N-[2-(3,5-dichloropyridin-2-yl)-2-(isopropoxyimino)ethyl]-2-(trifluoromethyl)benzamide] | 107 to 108 °C | ≥ 50% | – |
| CON=C(CNC(=O)c1ccccc1C(F)(F)F)c1ncc(OC)cc1Cl [2-083, N-[2-(3-chloro-5-methoxypyridin-2-yl)-2-(methoxyimino)ethyl]-2-(trifluoromethyl)benzamide] | – | – | pest or weed control at 500 µg/mL (Botrytis cinerea): ≥ 70% |
| CO/N=C(\CNC(=O)c1ccccc1C(F)(F)F)c1ccc(Cl)cc1Cl [Compound No. 1-004, (Z)—N-[2-(2,4-dichlorophenyl)-2-(methoxyimino)ethyl]-2-(trifluoromethyl)benzamide] | 146 to 148 °C | – | – |
| O=C(NC/C(=N/OCC1CC1)c1ncc(C(F)(F)F)cc1Cl)c1ccccc1C(F)(F)F [Compound No. 2-024, (Z)—N-[2-[3-chloro-5-(trifluoromethyl)pyridin-2-yl]-2-(cyclopropylmethoxyimino)ethyl]-2-(trifluoromethyl)benzamide] | 73 to 74 °C | ≥ 50% | – |
| CC(C)O/N=C(\c1ncc(Cl)cc1Cl)[C@H](C)NC(=O)c1ccccc1C(F)(F)F [Compound No. 2-132, (S)—N-[2-(3,5-dichloropyridin-2-yl)-2-(Z)-(isopropoxyimino)-1-methylethyl]-2-(trifluoromethyl)benzamide] | – | – | pest or weed control at 500 µg/mL [1]: ≥ 70% |
| O=C(NC/C(=N/OCC(F)(F)F)c1ncc(Cl)cc1Cl)c1ccccc1C(F)(F)F [2-212, (Z)—N-[2-(3,5-dichloropyridin-2-yl)-2-(2,2,2-trifluoroethoxyimino)ethyl]-2-(trifluoromethyl)benzamide] | 100 to 102 °C | ≥ 50% | – |
| O=C(NC/C(=N\OCC1CC1)c1ncc(C(F)(F)F)cc1Cl)c1ccccc1C(F)(F)F [Compound No. 2-023, (E)-N-[2-[3-chloro-5-(trifluoromethyl)pyridin-2-yl]-2-(cyclopropylmethoxyimino)ethyl]-2-(trifluoromethyl)benzamide] | 98 to 101 °C | – | – |
| CCC(C)O/N=C(/CNC(=O)c1ccccc1C(F)(F)F)c1ncc(Cl)cc1Cl (stereo not drawn) [2-136, (Z)—N-[2-(3,5-dichloropyridin-2-yl)-2-(sec-butoxyimino)ethyl]-2-(trifluoromethyl)benzamide] | 68 to 70 °C | – | pest or weed control at 500 µg/mL (Puccinia recondita): ≥ 70% |
| CCON=C(CNC(=O)c1cn(C)nc1C(F)F)c1ncc(Cl)cc1Cl [Compound No. 17-004, N-[2-(3,5-dichloropyridin-2-yl)-2-(ethoxyimino)ethyl]-3-difluoromethyl-1-methyl-1H-pyrazole-4-carboxamide] | – | – | pest or weed control at 500 µg/mL [1]: ≥ 70% |
| CCC(C)ON=C(CNC(=O)c1ccccc1C(F)(F)F)c1ncc(Cl)cc1Cl (stereo not drawn) [Compound No. 2-009, N-[2-(3,5-dichloropyridin-2-yl)-2-(sec-butoxyimino)ethyl]-2-(trifluoromethyl)benzamide] | – | ≥ 50% | – |
| CCO/N=C(/CNC(=O)c1ccccc1C(F)(F)F)c1ncc(C(F)(F)F)cc1Cl [Compound No. 2-185, (Z)—N-[2-[3-chloro-5-(trifluoromethyl)pyridin-2-yl]-2-(ethoxyimino)ethyl]-2-(trifluoromethyl)benzamide] | 60 to 62 °C | – | – |
| CC(C)ON=C(CNC(=O)c1ccccc1C(F)(F)F)c1ncc(Cl)cc1Cl [Compound No. 2-005, N-[2-(3,5-dichloropyridin-2-yl)-2-(isopropoxyimino)ethyl]-2-(trifluoromethyl)benzamide] | – | – | pest or weed control at 500 µg/mL (Puccinia recondita): ≥ 70% |
| CO/N=C(/CNC(=O)c1ccccc1C(F)(F)F)c1ncc(Br)cc1Cl [Compound No. 2-216, (Z)—N-[2-(5-bromo-3-chloropyridin-2-yl)-2-(methoxyimino)ethyl]-2-(trifluoromethyl)benzamide] | 85 to 86 °C | ≥ 50% | pest or weed control at 500 µg/mL [1]: ≥ 70% |
